This passage reports Ki results from BindingDB's records for doi:10.1021/jm040903t (Sapienza University of Rome, 2005).

Test [1] concerns the target T1, Amine oxidase [flavin-containing] B (Bos taurus, UniProt P56560).
T1 sequence (P56560 whole entry): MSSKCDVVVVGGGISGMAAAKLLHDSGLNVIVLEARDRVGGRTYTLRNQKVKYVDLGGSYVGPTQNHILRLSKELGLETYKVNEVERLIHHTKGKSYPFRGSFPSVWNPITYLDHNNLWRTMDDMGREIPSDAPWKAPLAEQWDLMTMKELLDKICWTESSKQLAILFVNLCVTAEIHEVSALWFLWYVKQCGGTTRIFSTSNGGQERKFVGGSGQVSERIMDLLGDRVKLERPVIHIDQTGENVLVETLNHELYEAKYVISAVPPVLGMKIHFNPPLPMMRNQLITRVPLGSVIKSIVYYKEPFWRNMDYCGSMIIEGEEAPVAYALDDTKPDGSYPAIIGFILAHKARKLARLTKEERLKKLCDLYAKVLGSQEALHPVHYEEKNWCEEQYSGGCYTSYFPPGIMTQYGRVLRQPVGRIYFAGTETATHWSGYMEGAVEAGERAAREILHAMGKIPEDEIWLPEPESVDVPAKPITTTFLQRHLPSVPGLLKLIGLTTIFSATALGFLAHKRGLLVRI
The test is described as follows: MAO Inhibition Assay. Conditions: pH 7.4; 38 °C. As for the experimental part:
(§1) MAO A and MAO B activities were determined […] using kynuramine as substrates. Fluorimetric measurements were recorded with a Perkin-Elmer LS 50B spectrofluorimeter. Dixon plots were used to estimate the inhibition constant (Ki) of the inhibitors. The data are the mean values of three or more experiments performed in duplicate.

For test [2], the target named is T2, Amine oxidase [flavin-containing] A (Bos taurus, UniProt P21398).
T2 sequence (P21398 whole entry): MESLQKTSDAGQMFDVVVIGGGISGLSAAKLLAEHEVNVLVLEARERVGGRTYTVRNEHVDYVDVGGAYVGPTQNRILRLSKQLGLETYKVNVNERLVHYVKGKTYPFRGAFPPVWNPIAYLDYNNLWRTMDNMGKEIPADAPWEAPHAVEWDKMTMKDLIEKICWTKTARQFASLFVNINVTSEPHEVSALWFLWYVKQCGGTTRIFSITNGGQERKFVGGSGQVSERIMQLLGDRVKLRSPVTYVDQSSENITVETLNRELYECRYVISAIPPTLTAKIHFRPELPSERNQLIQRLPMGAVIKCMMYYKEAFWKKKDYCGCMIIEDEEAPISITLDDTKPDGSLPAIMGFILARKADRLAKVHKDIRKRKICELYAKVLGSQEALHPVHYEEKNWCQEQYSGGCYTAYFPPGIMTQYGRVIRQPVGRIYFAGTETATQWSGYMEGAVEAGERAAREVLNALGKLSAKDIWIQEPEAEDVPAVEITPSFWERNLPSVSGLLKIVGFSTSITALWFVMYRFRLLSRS
The test is described as follows: MAO Inhibition Assay. Conditions: pH 7.4; 38 °C. As for the experimental part: as §1

pKi: −log10 of the molar value.

As a reminder, the pKi is the negative decadic logarithm of the Ki, by convention in mol/L. A low value points to a large Ki. The molecule `Cc1ccc(C2=NN(C(N)=S)C(c3ccc(Cl)cc3)C2)cc1` (configuration not stated) [5-(4-chlorophenyl)-3-(4-methylphenyl)-4,5-dihydro-1H-pyrazole-1-carbothioamide] showed a pKi in test [1] of 8.82.

Turning to `NC(=S)N1N=C(c2ccc(F)cc2)C[C@H]1c1ccc(Cl)cc1` [(5S)-5-(4-chlorophenyl)-3-(4-fluorophenyl)-4,5-dihydro-1H-pyrazole-1-carbothioamide], in test [2], the pKi was 8.30.
